Entries after “also recorded” stand apart in the source; their conditions may differ.

The subject of test [1] is ATF4. The test is described as follows: HEK-ATF4 high-content immunofluorescence imaging assay (ER stress). The class given is cell-based, human. Particulars: for ER stress response in the phenotypic assay (in words): HEK293 cells, 6 h, nuclear ATF4 as marker. The protocol: Here, the nuclear localization of the transcription factor ATF4 (which leads to subsequent expression of CHOP and cell death) was used as a phenotypic marker of ER stress (Figure 3A). Use of multi(384)-well plate format allowed wild-type HEK cells to be treated with analogues over a titrating concentration range of 0.5 nM to […] for 6 h in a quantitative manner (Figure 3C). After fixation with paraformaldehyde, high-content cellular fluorescence microscopy imaging was used to both determine the site and quantify the location of ATF4[32] (Figure 3B,C). Thus, immunofluorescent staining of the cells exploited a primary rabbit anti-ATF4 (D4B8) antibody followed by a solution containing a secondary Alexa Fluor 488-labeled goat anti-rabbit IgG along with Hoechst 33342 nuclei stain. In this way, confocal fluorescence microscopy at excitation wavelengths of 405 and 488 nm produced, as a direct primary readout, the intensity of ATF4 located in the nucleus as well as the ratio of ATF4 located between the nucleus (colocalized with Hoechst) and cytoplasm (see Figure 3B,C for representative images and the Supporting Information for channel-by-channel images). Concurrent readout of the number of stained nuclei (Hoechst nuclei stain) in live cells was also used as an internal cytotoxicity measure. This high-content method allowed detailed quantitative cellular dose responses to be determined with precision (Figure 3D). […] Consistent with ATF4 as a driver of apoptosis, this also drove cell death at higher concentrations (EC50 ∼ 10 μM) similar to those determined previously.[33] This therefore identified a clear dose–response window of more than 2 orders of magnitude over such key downstream events.
Figure 3 High-content phenotypic screen for putative ER stress inducers. (A) Schematic of the screening process. 12,000 HEK293 WT cells per well were plated into a 384-well plate and incubated at 37 °C for 24 h. Compounds were serially diluted and added to the plate and incubated for 6 h at 37 °C, at which point the cells were fixed with 4% PFA in PBS. The plates were then submitted to indirect ATF4 immunofluorescence, in which the plate was incubated with a primary anti-ATF4 (D4B8) antibody, followed by Alexa Fluor 488-labeled goat anti-rabbit secondary antibody and Hoechst 33342 dye. Plates were imaged using an OPERA-Phenix high-content imaging platform with fluorescence excitation at 405 and 488 nm. The images were analyzed, and the nuclear intensity of ATF4 for each cell was quantitatively determined (gray filled circles, left-hand axis in (D)) as well as the count of live cells (black squares, right-hand axis in (D)). Created in BioRender. https://BioRender.com/z32w873 (B) Representative section of imaging (red = nuclei, green = ATF4) for a given cellular population at a single dose (here exposed to tunicamycin at 41.2 nM). (C) Representative series panels of dose–response images after exposure to three different Tun-XE,YG analogues and DMSO control. (D) Corresponding resulting quantification of the high-throughput microscopy assay displaying the live cell count (black, right axis) and the nuclear intensity of ATF4 (gray, left axis) of tunicamycin and two lipid altered analogues, one with a large lipid at the gating position (Tun-9E,9G) and other with a short lipid at this position (Tun-8E,2G). See the Supporting Information for full details.
Supplementary Phenotypic Screening Methods
Tunicamycin analogues were tested in the HEK-ATF4 High Content Imaging assay to assess their ER stress generating ability. Wild-type HEK293 cells were plated in 384-well imaging assay plates at a density of 12,000 cells per well in growth medium (containing DMEM/F12, 10% FBS, 2 mM L-Glutamine, 100 U/mL Penicillin - 100µg/mL Streptomycin) and incubated at 37°C, 5% CO2. 24-hrs later, the medium was changed to 50 µl assay medium per well (DMEM/F12, 0.3% FBS, 2mM L-Glutamine, 100 U/mL Penicillin – 100 µg/mL […]
Streptomycin). […]

The next test relates to His-tagged IgG-Fc domain. The test is described as follows: In cell glycoprotein inhibition assay (IgG-Fc expression, SDS-PAGE and Western blot). The class given is cell-based, human. Particulars: HEK293T cells, 3 days, analogue 10 µM down to 0.5 nM (Tun-8E,2G 300 µM down to 15 nM), Figure S13.
Test [2] deals with ATF4. Description: ATF4 high-content imaging assay in primary human dermal fibroblasts. Particulars: 6 h, Figures S8–S12. The class given is cell-based. Here is the method: A targeted panel of tunicamycin analogues was tested in the ATF4 High Content Imaging assay to assess their ER stress generating ability in a primary cell line. Normal adult human dermal fibroblasts (NHDF-Ad, Lonza) were plated in a 96-well Phenoplate (PerkinElmer) at a seeding density of 10,000 cells per well in fibroblast growth medium (containing fibroblast basal medium, 10% FBS, 0.1% insulin, 0.1% hFGF-B, 0.1% Gentamicin/Amphotericin) and incubated at 37°C, 5% CO2. Treatment with pre-diluted compounds was performed after 24 hrs with final concentrations ranging from 10 µM – 5 nM (final DMSO concentration was 0.3%). Low control (0.3% DMSO final conc.) and high control (0.3 µM tunicamycin final conc.) wells were again included for assay normalization. Treated cells were incubated for 6 hrs at 37°C, 5% CO2 before fixing (4% PFA in PBS, 20 min at room temperature followed by washing (3x) with PBS). Direct ATF4 immunofluorescence staining was then performed, whereby cells were treated with a Coralite Plus 488-conjugated ATF4 Polyclonal antibody (CL488-10835, Proteintech) in a 1:100 dilution of Perm-block buffer (10% FBS, 0.3% TritonX-100 in PBS) for 2 hrs. Nuclei staining was then performed with DRAQ5 dye (ab108410, Abcam) at 1:1000 in PBS. Plates were imaged on a Leica SP8 confocal microscope equipped with 488 nm and 633 nm excitation and images were analysed using script-based algorithms as described for HEK cells above. […]

In the case of `CCCCCCCCC(=O)N[C@H]1[C@@H](O[C@@H]2O[C@H](C[C@@H](O)[C@H]3O[C@@H](n4ccc(=O)[nH]c4=O)[C@H](O)[C@@H]3O)[C@H](O)[C@H](O)[C@H]2NC(=O)CCC)O[C@H](CO)[C@@H](O)[C@@H]1O` [Tun-4E,9G], in the test on ATF4 [1], the “ER stress response in the phenotypic assay (in words)” value (“ER stress response” below) is given as “did not induce any ER stress response”.
Regarding `CCCCCCCC(=O)N[C@H]1[C@H](O[C@H]2O[C@H](CO)[C@@H](O)[C@H](O)[C@H]2NC(C)=O)O[C@H](C[C@@H](O)[C@H]2O[C@@H](n3ccc(=O)[nH]c3=O)[C@H](O)[C@@H]2O)[C@H](O)[C@@H]1O` [Tun-8E,2G], the “glycosylation state of expressed IgG-Fc (in words)” value in the test on His-tagged IgG-Fc domain is “unglycosylated IgG Fc protein is observed; also recorded: expression of non-glycosylated IgG-Fc”. In the test with ATF4 [1], the “ER stress response” value is “did not induce ER stress”. Also, the “increase in ATF4 (in words)” value in the test with ATF4 [2] is “only Tun itself leads to an increase in ATF4”.
Taken in the same sequence, the figures for `CCCCCCCCC(=O)N[C@H]1[C@H](O[C@H]2O[C@H](CO)[C@@H](O)[C@H](O)[C@H]2NC(=O)CCCCCCCC)O[C@H](C[C@@H](O)[C@H]2O[C@@H](n3ccc(=O)[nH]c3=O)[C@H](O)[C@@H]2O)[C@H](O)[C@@H]1O` [Tun-9E,9G] were “expression of intact glycosylated protein”, “did not induce any ER stress response” and “only Tun itself leads to an increase in ATF4”.
On to `CCCCCCCCC(=O)N[C@H]1[C@H](O[C@H]2O[C@H](CO)[C@@H](O)[C@H](O)[C@H]2NC(=O)CC(C)C)O[C@H](C[C@@H](O)[C@H]2O[C@@H](n3ccc(=O)[nH]c3=O)[C@H](O)[C@@H]2O)[C@H](O)[C@@H]1O` [Tun-9E,i5G], for which, in the test on ATF4 [1], the “ER stress response” value is recorded as “did not induce ER stress”.
In general, EC50 refers to the concentration at which the effect is half-maximal. For the molecule tunicamycin [reference compound], the “glycosylation state of expressed IgG-Fc (in words)” value in the test on His-tagged IgG-Fc domain is “unglycosylated IgG Fc protein is observed”; in the test on His-tagged IgG-Fc domain (listed as Tun) it was “expression of non-glycosylated IgG-Fc”. For the same molecule, the “ER stress response” value in the test on ATF4 [1] is given as “clear ER stress response”. Further, in the test on ATF4 [1] (wild-type HEK293 cells, 6 h treatment, read-out: EC50, increase in ATF4 in the nucleus), the EC50 stood at 0.044 ± 0.0032 µM. Also, in the test on ATF4 [2], the “increase in ATF4 (in words)” value was “leads to an increase in ATF4”.

These data come from PMC11758266, “Lipid-Modulated, Graduated Inhibition of N-Glycosylation Pathway Priming Suggests Wide Tolerance of ER Proteostasis to Stress” (ACS Central Science, 2024).
